Starred links: 1 amine or outer side, 2 acyl side, 3 side chain; linkers in the order of their positions; H or OH if unused. Positions of bridges follow the written chain, without caps; N, C: chain ends. Non-standard residues stand in square brackets, D forms with d. Residues, ends and D or L forms follow the SMILES beside them. *: point of attachment. hPhe(3-Cl-4-CF3) = N[C@@H](CCc1ccc(C(F)(F)F)c(Cl)c1)C(=O)O; hPhe(3-F,4-CF3) = N[C@@H](CCc1ccc(C(F)(F)F)c(F)c1)C(=O)O; NMePhe(4-CF3) = CN[C@@H](Cc1ccc(C(F)(F)F)cc1)C(=O)O; 3Oxa8azabicyclo(3.2.1)octane = C1CC2COCC1N2*; NMePhe(4-Me) = CN[C@@H](Cc1ccc(C)cc1)C(=O)O; NMedβ3hAla = C[C@H](CC(=O)[*:2])N(C)[*:1]; NMeAla(cPent) = CN[C@@H](CC1CCCC1)C(=O)O; NMeGly(cPent) = CN[C@H](C(=O)O)C1CCCC1; NMe4Pal = CN[C@@H](Cc1ccncc1)C(=O)O; NMeCha = CN[C@@H](CC1CCCCC1)C(=O)O; NMehLeu = CN[C@@H](CCC(C)C)C(=O)O; Hyp = O=C(O)[C@@H]1C[C@@H](O)CN1; NEtLeu = CCN[C@@H](CC(C)C)C(=O)O; NMeChg = CN[C@H](C(=O)O)C1CCCCC1; NMeI = CC[C@H](C)[C@H](NC)C(=O)O; Gly(cBu) = N[C@H](C(=O)O)C1CCC1; NMeD = CN[C@@H](CC(=O)O)C(=O)O; NMeL = CN[C@@H](CC(C)C)C(=O)O; NEtAla = CCN[C@@H](C)C(=O)O; NMeV = CN[C@H](C(=O)O)C(C)C; d(β3hA) = C[C@@H](N)CC(=O)O; Azetidin(1-yl) = C1CN(*)C1; NMeS = CN[C@@H](CO)C(=O)O; Morpholide = C1CN(*)CCO1; NMeA = CN[C@@H](C)C(=O)O; Piperidide = C1CCN(*)CC1; Pyrrolidide = C1CCN(*)C1; dNMeA = CN[C@H](C)C(=O)O; Ac5c = NC1(C(=O)O)CCCC1; Aze = O=C(O)[C@@H]1CCN1; X30 = COc1cccc(C*)c1; Sar = CNCC(=O)O; Propyl = CCC*
test system: Human pancreatic cancer cell line AsPC-1; assay: Measurement of AsPC-1 cell growth inhibition (AsPC-1 CGI); type: cell-based; conditions: 96 h
Outline: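 AsPC-1 cells in 15% FBS RPMI-1640 were exposed to test compound for 96 hours at 37° C, with CellTiter-Glo as endpoint.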

| Structure (SMILES) | IC50 |
| --- | --- |
| CC[C@H](C)[C@@H]1NC(=O)[C@H](CC(C)C)N(C)C(=O)C[C@@H](C)NC(=O)[C@H](C(C)C)N(C)C(=O)C2(CCCC2)NC(=O)[C@@H]2CCCN2C(=O)[C@H](CCc2ccc(C(F)(F)F)c(Cl)c2)NC(=O)CN(C)C(=O)[C@H](CC2CCCCC2)N(C)C(=O)[C@@H]2CCN2C(=O)[C@H](C)N(C)C1=O [Compound 488] (cyclo([Ac5c][NMeV][d(β3hA)][NMeL]I[NMeA][Aze][NMeCha][Sar][hPhe(3-Cl-4-CF3)]P)) | 100 to 500 nM |
| CC[C@H](C)[C@@H]1NC(=O)[C@H](CC(C)C)N(C)C(=O)C[C@@H](C(=O)N2CCCCC2)N(C)C(=O)[C@H](CC(C)C)N(C)C(=O)C2(CCCC2)NC(=O)[C@@H]2C[C@@H](OCc3cccc(OC)c3)CN2C(=O)[C@H](CCc2ccc(C(F)(F)F)c(F)c2)NC(=O)CN(C)C(=O)[C@H](CC2CCCCC2)N(C)C(=O)CN(C)C(=O)CN(C)C1=O [Compound 2131] ([NMeL]I[Sar][Sar][NMeCha][Sar][hPhe(3-F,4-CF3)][Hyp](X30)[Ac5c][NMeL][NMeD]-Piperidide; lactam N-11) | 100 to 500 nM |
| CC[C@H](C)[C@@H]1NC(=O)[C@H](C)N(C)C(=O)C[C@@H](C)N(C)C(=O)[C@H](C(C)C)N(C)C(=O)C2(CCCC2)NC(=O)[C@@H]2CCCN2C(=O)[C@H](CCc2ccc(C(F)(F)F)c(Cl)c2)NC(=O)[C@@H](C)N(C)C(=O)[C@H](CC2CCCCC2)N(C)C(=O)[C@@H]2CCN2C(=O)[C@H](C)N(C)C1=O [Compound 1773] (cyclo([Ac5c][NMeV][NMedβ3hAla][NMeA]I[NMeA][Aze][NMeCha][dNMeA][hPhe(3-Cl-4-CF3)]P)) | 100 to 500 nM |
| CC(C)C[C@H]1C(=O)N[C@@H](C2CCC2)C(=O)N(C)[C@@H](C)C(=O)N2CC[C@H]2C(=O)N(C)[C@@H](CC2CCCCC2)C(=O)N(C)CC(=O)N[C@@H](CCc2ccc(C(F)(F)F)c(Cl)c2)C(=O)N2CCC[C@H]2C(=O)NC2(CCCC2)C(=O)N(C)[C@@H](C(C)C)C(=O)N(C)[C@H](C(=O)N2CCCCC2)CC(=O)N1C [Compound 157] ([NMeL][Gly(cBu)][NMeA][Aze][NMeCha][Sar][hPhe(3-Cl-4-CF3)]P[Ac5c][NMeV][NMeD]-Piperidide; lactam N-11) | 100 to 500 nM |
| CC[C@H](C)[C@@H]1NC(=O)[C@H](CC(C)C)N(C)C(=O)C[C@@H](C(=O)N2C3CCC2COC3)N(C)C(=O)[C@H]([C@@H](C)CC)N(C)C(=O)C2(CCCC2)NC(=O)[C@@H]2CCCN2C(=O)[C@H](CCc2ccc(C(F)(F)F)c(Cl)c2)NC(=O)CN(C)C(=O)[C@H](CC2CCCCC2)N(C)C(=O)[C@@H]2CCN2C(=O)[C@H](C)N(C)C1=O [Compound 469] ([NMeL]I[NMeA][Aze][NMeCha][Sar][hPhe(3-Cl-4-CF3)]P[Ac5c][NMeI][NMeD]-{3Oxa8azabicyclo(3.2.1)octane}; lactam N-11) | 20 to 50 nM |
| CC[C@H](C)[C@@H]1NC(=O)[C@H](CC(C)C)N(C)C(=O)C[C@@H](C(=O)N2CCCCC2)N(C)C(=O)[C@H](C2CCCCC2)N(C)C(=O)C2(CCCC2)NC(=O)[C@H](Cc2ccncc2)N(C)C(=O)[C@H](CCc2ccc(C(F)(F)F)c(Cl)c2)NC(=O)CN(C)C(=O)[C@H](CC2CCCCC2)N(C)C(=O)CN(C)C(=O)CN(C)C1=O [Compound 36] ([NMeL]I[Sar][Sar][NMeCha][Sar][hPhe(3-Cl-4-CF3)][NMe4Pal][Ac5c][NMeChg][NMeD]-Piperidide; lactam N-11) | 100 to 500 nM |
| CC[C@H](C)[C@@H]1NC(=O)[C@H](CC(C)C)N(C)C(=O)C[C@@H](C(=O)N2CCC2)N(C)C(=O)[C@H](C(C)C)N(C)C(=O)C2(CCCC2)NC(=O)[C@@H]2CCCN2C(=O)[C@H](CCc2ccc(C(F)(F)F)c(Cl)c2)NC(=O)CN(C)C(=O)[C@H](CC2CCCCC2)N(C)C(=O)[C@@H]2CCN2C(=O)[C@H](C)N(C)C1=O [Compound 256] ([NMeL]I[NMeA][Aze][NMeCha][Sar][hPhe(3-Cl-4-CF3)]P[Ac5c][NMeV][NMeD]-{Azetidin(1-yl)}; lactam N-11) | 100 to 500 nM |
| CC[C@H](C)[C@@H]1NC(=O)[C@H](CC2CCCC2)N(C)C(=O)C[C@@H](C(=O)N2CCOCC2)N(C)C(=O)[C@H](C2CCCC2)N(C)C(=O)C2(CCCC2)NC(=O)[C@@H]2CCCN2C(=O)[C@H](CCc2ccc(C(F)(F)F)c(Cl)c2)NC(=O)CN(C)C(=O)[C@H](CC2CCCCC2)N(C)C(=O)[C@@H]2CCN2C(=O)[C@H](C)NC1=O [Compound 1176] ([NMeAla(cPent)]IA[Aze][NMeCha][Sar][hPhe(3-Cl-4-CF3)]P[Ac5c][NMeGly(cPent)][NMeD]-Morpholide; lactam N-11) | 50 to 100 nM |
| CC[C@H](C)[C@@H]1NC(=O)[C@H](CC(C)C)N(C)C(=O)C[C@@H](C(=O)N2CCCC2)N(C)C(=O)[C@H](C(C)C)N(C)C(=O)C2(CCCC2)NC(=O)[C@@H]2CCCN2C(=O)[C@H](CCc2ccc(C(F)(F)F)c(Cl)c2)NC(=O)CN(C)C(=O)[C@H](CC2CCCCC2)N(C)C(=O)[C@@H]2CCN2C(=O)CN(C)C1=O [Compound 1670] ([NMeL]I[Sar][Aze][NMeCha][Sar][hPhe(3-Cl-4-CF3)]P[Ac5c][NMeV][NMeD]-Pyrrolidide; lactam N-11) | 100 to 500 nM |
| CC[C@H](C)[C@@H]1NC(=O)[C@H](CC(C)C)N(C)C(=O)C[C@@H](C(=O)N2CCCCC2)N(C)C(=O)[C@H](CC(C)C)N(C)C(=O)C2(CCCC2)NC(=O)[C@@H]2CCCN2C(=O)[C@H](CCc2ccc(C(F)(F)F)c(Cl)c2)NC(=O)CN(C)C(=O)[C@H](CC2CCCCC2)N(C)C(=O)[C@@H]2CCN2C(=O)[C@H](C)N(C)C1=O [Compound 1657] ([NMeL]I[NMeA][Aze][NMeCha][Sar][hPhe(3-Cl-4-CF3)]P[Ac5c][NMeL][NMeD]-Piperidide; lactam N-11) | 100 to 500 nM |

Results, then the compound that gave them:

| IC50 | Structure (SMILES) |
| --- | --- |
| 50 to 100 nM | CC[C@H](C)[C@@H]1NC(=O)[C@H](CC(C)C)N(C)C(=O)C[C@@H](C)NC(=O)[C@H](C2CCCC2)N(C)C(=O)C2(CCCC2)NC(=O)[C@@H]2CCCN2C(=O)[C@H](CCc2ccc(C(F)(F)F)c(Cl)c2)NC(=O)CN(C)C(=O)[C@H](Cc2ccc(C)cc2)N(C)C(=O)[C@@H]2CCN2C(=O)[C@H](C)N(CC)C1=O [Compound 1023] (cyclo([Ac5c][NMeGly(cPent)][d(β3hA)][NMeL]I[NEtAla][Aze][NMePhe(4-Me)][Sar][hPhe(3-Cl-4-CF3)]P)) |
| 50 to 100 nM | CC[C@H](C)[C@@H]1NC(=O)[C@H](CC(C)C)N(C)C(=O)C[C@@H](C)NC(=O)[C@H](C2CCCC2)N(C)C(=O)C2(CCCC2)NC(=O)[C@@H]2CCCN2C(=O)[C@H](CCc2ccc(C(F)(F)F)c(Cl)c2)NC(=O)CN(C)C(=O)[C@H](Cc2ccc(C(F)(F)F)cc2)N(C)C(=O)[C@@H]2CCN2C(=O)CN(C)C1=O [Compound 1496] (cyclo([Ac5c][NMeGly(cPent)][d(β3hA)][NMeL]I[Sar][Aze][NMePhe(4-CF3)][Sar][hPhe(3-Cl-4-CF3)]P)) |
| 50 to 100 nM | CC[C@H](C)[C@@H]1NC(=O)[C@H](CC(C)C)N(C)C(=O)C[C@@H](C(=O)N2CCOCC2)N(C)C(=O)[C@H](C2CCCC2)N(C)C(=O)C2(CCCC2)NC(=O)[C@@H]2CCCN2C(=O)[C@H](CCc2ccc(C(F)(F)F)c(Cl)c2)NC(=O)CN(C)C(=O)[C@H](C2CCCC2)N(C)C(=O)[C@@H]2CCN2C(=O)[C@H](C)NC1=O [Compound 1309] ([NMeL]IA[Aze][NMeGly(cPent)][Sar][hPhe(3-Cl-4-CF3)]P[Ac5c][NMeGly(cPent)][NMeD]-Morpholide; lactam N-11) |
| 50 to 100 nM | CC[C@H](C)[C@@H]1NC(=O)[C@H](CC(C)C)N(C)C(=O)C[C@@H](C)N(C)C(=O)[C@H](C2CCCC2)N(C)C(=O)C2(CCCC2)NC(=O)[C@@H]2CCCN2C(=O)[C@H](CCc2ccc(C(F)(F)F)c(Cl)c2)NC(=O)CN(C)C(=O)[C@H](CC2CCCCC2)N(C)C(=O)[C@@H]2CCN2C(=O)[C@H](C)N(C)C1=O [Compound 1717] (cyclo([Ac5c][NMeGly(cPent)][NMedβ3hAla][NMeL]I[NMeA][Aze][NMeCha][Sar][hPhe(3-Cl-4-CF3)]P)) |
| 20 to 50 nM | CCCOC[C@H]1C(=O)N(C)CC(=O)N[C@@H](CCc2ccc(C(F)(F)F)c(F)c2)C(=O)N2CCC[C@H]2C(=O)NC2(CCCC2)C(=O)N(C)[C@@H]([C@@H](C)CC)C(=O)N(C)[C@H](C)CC(=O)N(C)[C@@H](CC(C)C)C(=O)N[C@@H]([C@@H](C)CC)C(=O)N(C)[C@@H](C)C(=O)N2CC[C@H]2C(=O)N1C [Compound 694] (cyclo([Ac5c][NMeI][NMedβ3hAla][NMeL]I[NMeA][Aze][NMeS](Propyl)[Sar][hPhe(3-F,4-CF3)]P)) |
| 50 to 100 nM | CC[C@H](C)[C@@H]1NC(=O)[C@H](CC(C)C)N(C)C(=O)C[C@@H](C)N(C)C(=O)[C@H]([C@@H](C)CC)N(C)C(=O)C2(CCCC2)NC(=O)[C@@H]2CCCN2C(=O)[C@H](CCc2ccc(C(F)(F)F)c(F)c2)NC(=O)CN(C)C(=O)[C@H](CC2CCCCC2)N(C)C(=O)[C@@H]2CCN2C(=O)[C@H](C)N(C)C1=O [Compound 859] (cyclo([Ac5c][NMeI][NMedβ3hAla][NMeL]I[NMeA][Aze][NMeCha][Sar][hPhe(3-F,4-CF3)]P)) |
| 20 to 50 nM | CC[C@H](C)[C@@H]1NC(=O)[C@H](CC(C)C)N(CC)C(=O)C[C@@H](C(=O)N2CCC2)N(C)C(=O)[C@H](C2CCCC2)N(C)C(=O)C2(CCCC2)NC(=O)[C@@H]2CCCN2C(=O)[C@H](CCc2ccc(C(F)(F)F)c(Cl)c2)NC(=O)CN(C)C(=O)[C@H](CC2CCCCC2)N(C)C(=O)[C@@H]2CCN2C(=O)[C@H](C)N(C)C1=O [Compound 1198] ([NEtLeu]I[NMeA][Aze][NMeCha][Sar][hPhe(3-Cl-4-CF3)]P[Ac5c][NMeGly(cPent)][NMeD]-{Azetidin(1-yl)}; lactam N-11) |
| 20 to 50 nM | CC[C@H](C)[C@@H]1NC(=O)[C@H](CCC(C)C)N(C)C(=O)C[C@@H](C(=O)N(C)C)N(C)C(=O)[C@H](C2CCCC2)N(C)C(=O)C2(CCCC2)NC(=O)[C@@H]2CCCN2C(=O)[C@H](CCc2ccc(C(F)(F)F)c(F)c2)NC(=O)CN(C)C(=O)[C@H](CC2CCCCC2)N(C)C(=O)[C@@H]2CCN2C(=O)[C@H](C)NC1=O [Compound 1292] ([NMehLeu]IA[Aze][NMeCha][Sar][hPhe(3-F,4-CF3)]P[Ac5c][NMeGly(cPent)][NMeD]-NMe2; lactam N-11) |
